Source: ChEMBL document CHEMBL3994626 (Bioorg Med Chem Lett, 2017)

Experiments:
[1] = Stability in mouse liver microsomes assessed as parent compound remaining at 0.5 uM after 10 mins by high throughput assay; assay type: ADME, microsome; conditions: read-out: Stability
[2] = Drug uptake in KLH Balb/c mouse model at 0.6 mg/kg, po after 7 hrs; assay type: ADME, organism-based; conditions: in vivo, read-out: Drug uptake
[3] = Drug uptake in Balb/c mouse KLH model at 0.6 mg/kg, po after 24 hrs; assay type: ADME, organism-based; conditions: in vivo, read-out: Drug uptake
[4] = Drug uptake in Balb/c mouse KLH model at 3 mg/kg, po after 7 hrs; assay type: ADME, organism-based; conditions: in vivo, read-out: Drug uptake
[5] = Drug uptake in Balb/c mouse KLH model at 3 mg/kg, po after 24 hrs; assay type: ADME, organism-based; conditions: in vivo, read-out: Drug uptake
[6] = Drug uptake in Balb/c mouse KLH model at 15 mg/kg, po after 7 hrs; assay type: ADME, organism-based; conditions: in vivo, read-out: Drug uptake
[7] = Drug uptake in Balb/c mouse KLH model at 15 mg/kg, po after 24 hrs; assay type: ADME, organism-based; conditions: in vivo, read-out: Drug uptake
[8] = AUC in BALB/c mouse up to 300 mg/kg, qd measured on day 4; assay type: ADME, organism-based; conditions: in vivo
[9] = Cmax in BALB/c mouse up to 300 mg/kg, qd measured on day 4; assay type: ADME, organism-based; design: dose 300 mg/kg; conditions: in vivo

CC(=O)N1C[C@@H](C)N(c2cccc(-c3cc(-c4ccnn4C4CCOCC4)c4c(N)ncnn34)c2)[C@@H](C)C1
remaining at 10 min, 0.5 µM [1]: 54% | concentration at 7 h [2]: < 6.4 nM | concentration at 24 h [3]: < 5.6 nM | concentration at 7 h [4]: 24.9 nM | concentration at 24 h [5]: < 3.9 nM | concentration at 7 h [6]: 97.8 nM | concentration at 24 h [7]: < 7 nM | AUC [8]: ≤ 520 µM·h | Cmax [9]: ≤ 55000 nM

COc1cc(-c2cc(-c3ccnn3C3CCOCC3)c3c(N)ncnn23)cc(N2[C@H](C)CN(C(C)=O)C[C@@H]2C)c1
remaining at 10 min, 0.5 µM [1]: 14%

CC(=O)N1C[C@@H](C)N(c2cncc(-c3cc(-c4ccnn4C4CCOCC4)c4c(N)ncnn34)c2)[C@@H](C)C1
remaining at 10 min, 0.5 µM [1]: 48%

CC(=O)N1C[C@@H](C)N(c2cc(F)cc(-c3cc(-c4ccnn4C4CCOCC4)c4c(N)ncnn34)c2)[C@@H](C)C1
remaining at 10 min, 0.5 µM [1]: 35%
